Numbered stars: 1 amine (or outer) side, 2 acyl side, 3 side chain; on linkers, the order of the positions; unused ones are H or OH. Bridge positions count the residues as written; N and C are the ends. Peptide text beside a SMILES is read from it. * marks the point of attachment. C20 diacid = O=C(O)CCCCCCCCCCCCCCCCCCC(=O)*; γGlu = O=C(O)[C@H](CCC(=O)[*:2])N[*:1]; AEEA = NCCOCCOCC(=O)O
Test: ThT assay: fibril formation propensity and peptide recovery
Type: physicochemical
Details: for ThT, pH 4.0 lag-time: 250 μM peptide, 10 mM glycylglycine pH 4.0, 1 μM ThT, 37 °C, 960 rpm, 45 h, lowest of four replicas, average of experiments; for recovery: pH 4.0, residual dissolved peptide after 45 h of shaking, centrifugation and 0.22 μm filtration, HPLC, relative to amount before stress
Method in brief: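 Peptides at 250 μM in 10 mM glycylglycine (pH 4.0) or HEPES (pH 7.5) with 1 μM ThT, shaken at 37 °C, 960 rpm, for 45 h; ThT fluorescence (ex 444/em 485 nm) read every 20 min. Lag time is the lowest of four replicates (>45 h if none); recovery is soluble peptide by HPLC after centrifugation/filtration, relative to pre-stress.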

Row | SMILES | ThT, pH 4.0 lag-time [h] | recovery [%]
1 | CC[C@H](C)[C@H](NC(=O)[C@H](C)NC(=O)CNC(=O)[C@H](Cc1ccccc1)NC(=O)[C@H](CC(N)=O)NC(=O)[C@@H]1CCCN1C(=O)[C@H](CO)NC(=O)[C@H](CO)NC(=O)[C@H](Cc1c[nH]cn1)NC(=O)[C@H](CCCNC(=N)N)NC(=O)[C@H](CC(C)C)NC(=O)[C@H](Cc1ccccc1)NC(=O)[C@H](CCC(=O)O)NC(=O)[C@H](C)NC(=O)[C@H](CC(C)C)NC(=O)[C@H](CCCNC(=N)N)NC(=O)[C@H](CCC(N)=O)NC(=O)[C@@H](NC(=O)[C@H](C)NC(=O)[C@@H]1CSSC[C@H](NC(=O)[C@H](CCCCN)NC(=O)CC[C@H](NC(=O)CCCCCCCCCCCCCCCCCCC(=O)O)C(=O)O)C(=O)N[C@@H](CC(N)=O)C(=O)N[C@@H]([C@@H](C)O)C(=O)N[C@@H](C)C(=O)N[C@@H]([C@@H](C)O)C(=O)N1)[C@@H](C)O)C(=O)N1CCC[C@H]1C(=O)N[C@@H](CO)C(=O)N[C@@H](CO)C(=O)N[C@H](C(=O)N[C@@H](CC(N)=O)C(=O)N[C@H](C(=O)NCC(=O)N1CCC[C@H]1C(=O)N[C@@H](CC(N)=O)C(=O)N[C@H](C(=O)N[C@@H](Cc1ccc(O)cc1)C(N)=O)[C@@H](C)O)C(C)C)[C@@H](C)O [Peptide 12] ({C20 diacid-γGlu}-KCNTATCATQRLAEFLRHSSPNFGAIPSSTNVGPNTY-NH2; disulfide 2-7) | >45 | 78
2 | CC[C@H](C)[C@H](NC(=O)[C@H](C)NC(=O)CNC(=O)[C@H](Cc1ccccc1)NC(=O)[C@H](CC(N)=O)NC(=O)[C@@H]1CCCN1C(=O)[C@H](CO)NC(=O)[C@H](CO)NC(=O)[C@H](Cc1c[nH]cn1)NC(=O)[C@H](CCCNC(=N)N)NC(=O)[C@H](CC(C)C)NC(=O)[C@H](Cc1ccccc1)NC(=O)[C@H](CC(N)=O)NC(=O)[C@H](C)NC(=O)[C@H](CC(C)C)NC(=O)[C@H](CCCNC(=N)N)NC(=O)[C@H](CCC(N)=O)NC(=O)[C@@H](NC(=O)[C@H](C)NC(=O)[C@@H]1CSSC[C@H](NC(=O)[C@H](CCCCN)NC(=O)CC[C@H](NC(=O)CCCCCCCCCCCCCCCCCCC(=O)O)C(=O)O)C(=O)N[C@@H](CC(N)=O)C(=O)N[C@@H]([C@@H](C)O)C(=O)N[C@@H](C)C(=O)N[C@@H]([C@@H](C)O)C(=O)N1)[C@@H](C)O)C(=O)N1CCC[C@H]1C(=O)N[C@@H](CO)C(=O)N[C@@H](CO)C(=O)N[C@H](C(=O)N[C@@H](CC(N)=O)C(=O)N[C@H](C(=O)NCC(=O)N[C@@H](CO)C(=O)N[C@@H](CCCCN)C(=O)N[C@H](C(=O)N[C@@H](Cc1ccc(O)cc1)C(N)=O)[C@@H](C)O)C(C)C)[C@@H](C)O [Peptide 13] | 35 | 99
3 | CC[C@H](C)[C@H](NC(=O)[C@H](C)NC(=O)CNC(=O)[C@H](Cc1ccccc1)NC(=O)[C@H](CC(N)=O)NC(=O)[C@@H]1CCCN1C(=O)[C@H](CO)NC(=O)[C@H](CO)NC(=O)[C@H](Cc1c[nH]cn1)NC(=O)[C@H](CCCNC(=N)N)NC(=O)[C@H](CC(C)C)NC(=O)[C@H](Cc1ccccc1)NC(=O)[C@H](CC(N)=O)NC(=O)[C@H](C)NC(=O)[C@H](CC(C)C)NC(=O)[C@H](CCCNC(=N)N)NC(=O)[C@H](CCC(N)=O)NC(=O)[C@@H](NC(=O)[C@H](C)NC(=O)[C@@H]1CSSC[C@H](NC(=O)[C@@H](N)CCCCNC(=O)CC[C@H](NC(=O)CCCCCCCCCCCCCCCCCCC(=O)O)C(=O)O)C(=O)N[C@@H](CC(N)=O)C(=O)N[C@@H]([C@@H](C)O)C(=O)N[C@@H](C)C(=O)N[C@@H]([C@@H](C)O)C(=O)N1)[C@@H](C)O)C(=O)N1CCC[C@H]1C(=O)N[C@@H](CO)C(=O)N[C@@H](CO)C(=O)N[C@H](C(=O)N[C@@H](CC(N)=O)C(=O)N[C@H](C(=O)NCC(=O)N[C@@H](CO)C(=O)N[C@@H](CCCCN)C(=O)N[C@H](C(=O)N[C@@H](Cc1ccc(O)cc1)C(N)=O)[C@@H](C)O)C(C)C)[C@@H](C)O [Peptide 14] | >45 | 100
4 | CC[C@H](C)[C@H](NC(=O)[C@H](C)NC(=O)CNC(=O)[C@H](Cc1ccccc1)NC(=O)[C@H](CC(N)=O)NC(=O)[C@@H]1CCCN1C(=O)[C@H](CO)NC(=O)[C@H](CO)NC(=O)[C@H](Cc1c[nH]cn1)NC(=O)[C@H](CCCNC(=N)N)NC(=O)[C@H](CC(C)C)NC(=O)[C@H](Cc1ccccc1)NC(=O)[C@H](CC(N)=O)NC(=O)[C@H](C)NC(=O)[C@H](CC(C)C)NC(=O)[C@H](CCCNC(=N)N)NC(=O)[C@H](CCC(N)=O)NC(=O)[C@@H](NC(=O)[C@H](C)NC(=O)[C@@H]1CSSC[C@H](NC(=O)[C@H](CCCCN)NC(=O)CC[C@H](NC(=O)CCCCCCCCCCCCCCCCCCC(=O)O)C(=O)O)C(=O)N[C@@H](CC(N)=O)C(=O)N[C@@H]([C@@H](C)O)C(=O)N[C@@H](C)C(=O)N[C@@H]([C@@H](C)O)C(=O)N1)[C@@H](C)O)C(=O)N1CCC[C@H]1C(=O)N[C@@H](CO)C(=O)N[C@@H](CO)C(=O)N[C@H](C(=O)N[C@@H](CC(N)=O)C(=O)N[C@H](C(=O)NCC(=O)N[C@@H](CCCNC(=N)N)C(=O)N[C@@H](CC(N)=O)C(=O)N[C@H](C(=O)N[C@@H](Cc1ccc(O)cc1)C(N)=O)[C@@H](C)O)C(C)C)[C@@H](C)O [Peptide 16] | >45 | 100

Next, values leading:

Row | ThT, pH 4.0 lag-time [h] | recovery [%] | SMILES
5 | 26 | 92 | CC[C@H](C)[C@H](NC(=O)[C@H](C)NC(=O)CNC(=O)[C@H](Cc1ccccc1)NC(=O)[C@H](CC(N)=O)NC(=O)[C@@H]1CCCN1C(=O)[C@H](CO)NC(=O)[C@H](CO)NC(=O)[C@H](Cc1c[nH]cn1)NC(=O)[C@H](CCCNC(=N)N)NC(=O)[C@H](CC(C)C)NC(=O)[C@H](Cc1ccccc1)NC(=O)[C@H](CC(N)=O)NC(=O)[C@H](C)NC(=O)[C@H](CC(C)C)NC(=O)[C@H](CCCNC(=N)N)NC(=O)[C@H](CCC(N)=O)NC(=O)[C@@H](NC(=O)[C@H](C)NC(=O)[C@@H]1CSSC[C@H](NC(=O)[C@H](CCCCN)NC(=O)CC[C@H](NC(=O)CCCCCCCCCCCCCCCCCCC(=O)O)C(=O)O)C(=O)N[C@@H](CC(N)=O)C(=O)N[C@@H]([C@@H](C)O)C(=O)N[C@@H](C)C(=O)N[C@@H]([C@@H](C)O)C(=O)N1)[C@@H](C)O)C(=O)N1CCC[C@H]1C(=O)N[C@@H](CO)C(=O)N[C@@H](CO)C(=O)N[C@H](C(=O)N[C@@H](CC(N)=O)C(=O)N[C@H](C(=O)NCC(=O)N[C@@H](Cc1c[nH]cn1)C(=O)N[C@@H](CC(N)=O)C(=O)N[C@H](C(=O)N[C@@H](Cc1ccc(O)cc1)C(N)=O)[C@@H](C)O)C(C)C)[C@@H](C)O [Peptide 17]
6 | 15 | 30 | CC[C@H](C)[C@H](NC(=O)[C@H](C)NC(=O)CNC(=O)[C@H](Cc1ccccc1)NC(=O)[C@H](CC(N)=O)NC(=O)[C@@H]1CCCN1C(=O)[C@H](CO)NC(=O)[C@H](CO)NC(=O)[C@H](Cc1c[nH]cn1)NC(=O)[C@H](CCCNC(=N)N)NC(=O)[C@H](CC(C)C)NC(=O)[C@H](Cc1ccccc1)NC(=O)[C@H](CC(N)=O)NC(=O)[C@H](C)NC(=O)[C@H](CC(C)C)NC(=O)[C@H](CCCNC(=N)N)NC(=O)[C@H](CCC(N)=O)NC(=O)[C@@H](NC(=O)[C@H](C)NC(=O)[C@@H]1CSSC[C@H](NC(=O)[C@H](CCCCN)NC(=O)COCCOCCNC(=O)CC[C@H](NC(=O)CCCCCCCCCCCCCCCCCCC(=O)O)C(=O)O)C(=O)N[C@@H](CC(N)=O)C(=O)N[C@@H]([C@@H](C)O)C(=O)N[C@@H](C)C(=O)N[C@@H]([C@@H](C)O)C(=O)N1)[C@@H](C)O)C(=O)N1CCC[C@H]1C(=O)N[C@@H](CO)C(=O)N[C@@H](CO)C(=O)N[C@H](C(=O)N[C@@H](CC(N)=O)C(=O)N[C@H](C(=O)NCC(=O)N[C@@H](CO)C(=O)N[C@@H](Cc1c[nH]cn1)C(=O)N[C@H](C(=O)N[C@@H](Cc1ccc(O)cc1)C(N)=O)[C@@H](C)O)C(C)C)[C@@H](C)O [Peptide 18] ({C20 diacid-γGlu-AEEA}-KCNTATCATQRLANFLRHSSPNFGAIPSSTNVGSHTY-NH2; disulfide 2-7; N-terminus assumed)
7 | >45 | 84 | CC[C@H](C)[C@H](NC(=O)[C@H](C)NC(=O)CNC(=O)[C@H](Cc1ccccc1)NC(=O)[C@H](CC(N)=O)NC(=O)[C@@H]1CCCN1C(=O)[C@H](CO)NC(=O)[C@H](CO)NC(=O)[C@H](Cc1c[nH]cn1)NC(=O)[C@H](CCCNC(=N)N)NC(=O)[C@H](CC(C)C)NC(=O)[C@H](Cc1ccccc1)NC(=O)[C@H](CC(N)=O)NC(=O)[C@H](C)NC(=O)[C@H](CC(C)C)NC(=O)[C@H](CCCNC(=N)N)NC(=O)[C@H](CCC(N)=O)NC(=O)[C@@H](NC(=O)[C@H](C)NC(=O)[C@@H]1CSSC[C@H](NC(=O)[C@H](CCCNC(=N)N)NC(=O)CNC(=O)CC[C@H](NC(=O)CCCCCCCCCCCCCCCCCCC(=O)O)C(=O)O)C(=O)N[C@@H](CC(N)=O)C(=O)N[C@@H]([C@@H](C)O)C(=O)N[C@@H](C)C(=O)N[C@@H]([C@@H](C)O)C(=O)N1)[C@@H](C)O)C(=O)N1CCC[C@H]1C(=O)N[C@@H](CO)C(=O)N[C@@H](CO)C(=O)N[C@H](C(=O)N[C@@H](CC(N)=O)C(=O)N[C@H](C(=O)NCC(=O)N[C@@H](CO)C(=O)N[C@@H](Cc1c[nH]cn1)C(=O)N[C@H](C(=O)N[C@@H](Cc1ccc(O)cc1)C(N)=O)[C@@H](C)O)C(C)C)[C@@H](C)O [Peptide 19] ({C20 diacid-γGlu}-GRCNTATCATQRLANFLRHSSPNFGAIPSSTNVGSHTY-NH2; disulfide 3-8)
